Data reported in patent US20240285621A1, “PYRAZOLYL-PYRIMIDINE DERIVATIVES AS KINASE INHIBITORS” (NERVIANO MEDICAL SCIENCES S.R.L., priority 2020, published 2024).
Counter-ions that a name gives are not always drawn. Like-named read-outs stand apart in the source and are kept apart here.

Target: T1, SYK (Homo sapiens, UniProt P43405)
T1 construct: Recombinant proteins SYK FL was produced at NMS via baculo virus infection in insect cells; His; GST; made in house; host or cells: insect cells (baculovirus)
Assay: Biochemical kinase inhibition assay on SYK, KinaseGlo assay format
Conditions: read-out: IC50 (μM) Kglo

[1] = Table A, KinaseGlo format, pre-activated SYK 2.5 nM, ATP 2.5 μM, substrate BioDBn*327 125 uM, 60 minutes at rt

Row | SMILES | IC50 [1] [µM] | IC50 (Table B, reference compounds of WO2012/139930, KinaseGlo format on Syk) [µM]
1 | Cc1cc(C)cc(Nc2nccc(-c3cc(C(=O)N4C[C@H]5C[C@H]4CN5)n(C)n3)n2)c1 [Example 96, (1S,4R)-2,5-diazabicyclo[2.2.1]hept-2-yl(3-{2-[(3,5-dimethylphenyl)amino]pyrimidin-4-yl}-1-methyl-1H-pyrazol-5-yl)methanone hydrochloride] | 0.07 | 
2 | Cc1cc(C)cc(Nc2nccc(-c3cc(C(=O)N4CCC[C@H]4CO)n(C)n3)n2)c1 [Example 89, (3-{2-[(3,5-dimethylphenyl)amino]pyrimidin-4-yl}-1-methyl-1H-pyrazol-5-yl)[(2S)-2-(hydroxymethyl)pyrrolidin-1-yl]methanone] | 0.219 | 
3 | Cc1cc(C)cc(Nc2nccc(-c3cc(C(=O)NCc4cncn4C)n(C)n3)n2)c1 [Example 25, 3-{2-[(3,5-dimethylphenyl)amino]pyrimidin-4-yl}-1-methyl-N-[(1-methyl-1H-imidazol-5-yl)methyl]-1H-pyrazole-5-carboxamide] | 0.249 | 
4 | COc1cc(Nc2nccc(-c3cc(C(=O)N[C@@H](C)CN4CCCC4)n(C)n3)n2)cc(OC)c1OC [Example 58, 1-methyl-N-[(2S)-1-(pyrrolidin-1-yl)propan-2-yl]-3-{2-[(3,4,5-trimethoxyphenyl)amino]pyrimidin-4-yl}-1H-pyrazole-5-carboxamide] | 0.059 | 
5 | CCc1cccc(CC)c1NC(=O)c1cc(-c2ccnc(Nc3ccccc3OC)n2)n(C)n1 [compound 7, reference compound] |  | > 10
6 | CN1CCN(c2ccc(Nc3nccc(-c4cc(C(=O)N[C@H]5CCCC[C@H]5O)n(C)n4)n3)cc2Cl)CC1 [Example 114, 3-(2-{[3-chloro-4-(4-methylpiperazin-1-yl)phenyl]amino}pyrimidin-4-yl)-N-[(1S,2R)-2-hydroxycyclohexyl]-1-methyl-1H-pyrazole-5-carboxamide] | 0.191 | 
7 | C[C@@H](CO)NC(=O)c1cc(-c2ccnc(Nc3ccc(N4CCN(C)CC4)c(Cl)c3)n2)nn1C [Example 110, 3-(2-{[3-chloro-4-(4-methylpiperazin-1-yl)phenyl]amino}pyrimidin-4-yl)-N-[(2S)-1-hydroxypropan-2-yl]-1-methyl-1H-pyrazole-5-carboxamide] | 0.452 | 
8 | Cc1cc(C)cc(Nc2nccc(-c3cc(C(=O)N4CC[C@H](O)C4)n(C)n3)n2)c1 [Example 90, (3-{2-[(3,5-dimethylphenyl)amino]pyrimidin-4-yl}-1-methyl-1H-pyrazol-5-yl)[(3S)-3-hydroxypyrrolidin-1-yl]methanone] | 0.156 | 
9 | COCCNC(=O)c1cc(-c2ccnc(Nc3cc(C)cc(C)c3)n2)nn1C [Example 16, 3-{2-[(3,5-dimethylphenyl)amino]pyrimidin-4-yl}-N-(2-methoxyethyl)-1-methyl-1H-pyrazole-5-carboxamide] | 0.272 | 
10 | Cc1cc(C)cc(Nc2nccc(-c3cc(C(=O)NC4CNC4)n(C)n3)n2)c1 [Example 8, N-(azetidin-3-yl)-3-{2-[(3,5-dimethylphenyl)amino]pyrimidin-4-yl}-1-methyl-1H-pyrazole-5-carboxamide trifluoroacetate] | 0.282 | 
11 | Cc1cc(C)cc(Nc2nccc(-c3cc(C(=O)N[C@@H](C)C(F)(F)F)n(C)n3)n2)c1 [Example 42, 3-{2-[(3,5-dimethylphenyl)amino]pyrimidin-4-yl}-1-methyl-N-[(2S)-1,1,1-trifluoropropan-2-yl]-1H-pyrazole-5-carboxamide] | 0.474 | 
12 | Cc1cc(C)cc(Nc2nccc(-c3cc(C(=O)NC(C)C)n(C)n3)n2)c1 [Example 4, 3-{2-[(3,5-dimethylphenyl)amino]pyrimidin-4-yl}-1-methyl-N-(propan-2-yl)-1H-pyrazole-5-carboxamide] | 0.111 | 
13 | Cc1c(C)n(C)c2ccc(Nc3nccc(-c4cc(C(=O)N[C@@H](C)CO)n(C)n4)n3)cc12 [Example 93, N-[(2S)-1-hydroxypropan-2-yl]-1-methyl-3-{2-[(1,2,3-trimethyl-1H-indol-5-yl)amino]pyrimidin-4-yl}-1H-pyrazole-5-carboxamide] | 0.137 | 
14 | Cc1cc(C)cc(Nc2nccc(-c3cc(C(=O)N(C)C)n(C)n3)n2)c1 [Example 15, 3-{2-[(3,5-dimethylphenyl)amino]pyrimidin-4-yl}-N,N,1-trimethyl-1H-pyrazole-5-carboxamide] | 0.358 | 
15 | Cc1cc(C)cc(Nc2nccc(-c3cc(C(=O)Nc4cc[nH]n4)n(C)n3)n2)c1 [Example 20, 3-{2-[(3,5-dimethylphenyl)amino]pyrimidin-4-yl}-1-methyl-N-(1H-pyrazol-3-yl)-1H-pyrazole-5-carboxamide] | 0.109 | 

Continued, values first:

Row | IC50 [1] [µM] | IC50 (Table B, reference compounds of WO2012/139930, KinaseGlo format on Syk) [µM] | SMILES
16 | 0.051 |  | Cc1cc(C)cc(Nc2nccc(-c3cc(C(=O)N4CCC(N)C4)n(C)n3)n2)c1 (stereo not drawn) [Example 88, (3-aminopyrrolidin-1-yl)(3-{2-[(3,5-dimethylphenyl)amino]pyrimidin-4-yl}-1-methyl-1H-pyrazol-5-yl)methanone]
17 | 0.04 |  | Cc1cc(C)cc(Nc2nccc(-c3cc(C(=O)NCC4CC4)n(C)n3)n2)c1 [Example 47, N-(cyclopropylmethyl)-3-{2-[(3,5-dimethylphenyl)amino]pyrimidin-4-yl}-1-methyl-1H-pyrazole-5-carboxamide]
18 | 0.007 |  | CC(C)[C@@H](CN1CCCC1)NC(=O)c1cc(-c2ccnc(Nc3cc(Cl)cc(Cl)c3)n2)nn1C [Example 117, 3-{2-[(3,5-dichlorophenyl)amino]pyrimidin-4-yl}-1-methyl-N-[(2S)-3-methyl-1-(pyrrolidin-1-yl)butan-2-yl]-1H-pyrazole-5-carboxamide]
19 | 0.032 |  | COc1cccc(Nc2nccc(-c3cc(C(=O)N[C@@H](C)CN4CCCC4)n(C)n3)n2)c1 [Example 70, 3-{2-[(3-methoxyphenyl)amino]pyrimidin-4-yl}-1-methyl-N-[(2S)-1-(pyrrolidin-1-yl)propan-2-yl]-1H-pyrazole-5-carboxamide]
20 | 0.011 |  | Cn1nc(-c2ccnc(Nc3cc(Cl)cc(Cl)c3)n2)cc1C(=O)N[C@H]1CCCC[C@H]1N [Example 99, N-[(1S,2R)-2-aminocyclohexyl]-3-{2-[(3,5-dichlorophenyl)amino]pyrimidin-4-yl}-1-methyl-1H-pyrazole-5-carboxamide hydrochloride]
21 | 0.027 |  | CCn1nc(-c2ccnc(Nc3cc(C)cc(C)c3)n2)cc1C(=O)N[C@H]1CCCC[C@H]1O [Example 120, 3-{2-[(3,5-dimethylphenyl)amino]pyrimidin-4-yl}-1-ethyl-N-[(1S,2R)-2-hydroxycyclohexyl]-1H-pyrazole-5-carboxamide]
22 | 0.009 |  | COc1cc(Nc2nccc(-c3cc(C(=O)N[C@H]4CCCC[C@H]4N)n(C)n3)n2)cc(C(F)(F)F)c1 [Example 37, N-[(1S,2R)-2-aminocyclohexyl]-3-(2-{[3-methoxy-5-(trifluoromethyl)phenyl]amino}pyrimidin-4-yl)-1-methyl-1H-pyrazole-5-carboxamide hydrochloride]
23 | 0.012 |  | CCn1nc(-c2ccnc(Nc3cc(C)cc(C)c3)n2)cc1C(=O)N[C@H]1CCCC[C@H]1N [Example 121, N-[(1S,2R)-2-aminocyclohexyl]-3-{2-[(3,5-dimethylphenyl)amino]pyrimidin-4-yl}-1-ethyl-1H-pyrazole-5-carboxamide hydrochloride]
24 | < 0.004 |  | Cc1cc(C)cc(Nc2nccc(-c3cc(C(=O)N[C@H]4CCCC[C@H]4N)[nH]n3)n2)c1 [Example 104, N-[(1S,2R)-2-aminocyclohexyl]-3-{2-[(3,5-dimethylphenyl)amino]pyrimidin-4-yl}-1H-pyrazole-5-carboxamide hydrochloride]
